Source: patent US11008317B2, “Triazolopyridine inhibitors of myeloperoxidase and/or EPX” (priority 2016, dated 2021)

Experiments:
[1] = target: T1, myeloperoxidase (Homo sapiens, UniProt P05164); assay: MPO Chlorination Assay (APF Assay); type: biochemical; conditions: potency range class, read-out: APF Assay IC50 value
T1 sequence (P05164 49-745): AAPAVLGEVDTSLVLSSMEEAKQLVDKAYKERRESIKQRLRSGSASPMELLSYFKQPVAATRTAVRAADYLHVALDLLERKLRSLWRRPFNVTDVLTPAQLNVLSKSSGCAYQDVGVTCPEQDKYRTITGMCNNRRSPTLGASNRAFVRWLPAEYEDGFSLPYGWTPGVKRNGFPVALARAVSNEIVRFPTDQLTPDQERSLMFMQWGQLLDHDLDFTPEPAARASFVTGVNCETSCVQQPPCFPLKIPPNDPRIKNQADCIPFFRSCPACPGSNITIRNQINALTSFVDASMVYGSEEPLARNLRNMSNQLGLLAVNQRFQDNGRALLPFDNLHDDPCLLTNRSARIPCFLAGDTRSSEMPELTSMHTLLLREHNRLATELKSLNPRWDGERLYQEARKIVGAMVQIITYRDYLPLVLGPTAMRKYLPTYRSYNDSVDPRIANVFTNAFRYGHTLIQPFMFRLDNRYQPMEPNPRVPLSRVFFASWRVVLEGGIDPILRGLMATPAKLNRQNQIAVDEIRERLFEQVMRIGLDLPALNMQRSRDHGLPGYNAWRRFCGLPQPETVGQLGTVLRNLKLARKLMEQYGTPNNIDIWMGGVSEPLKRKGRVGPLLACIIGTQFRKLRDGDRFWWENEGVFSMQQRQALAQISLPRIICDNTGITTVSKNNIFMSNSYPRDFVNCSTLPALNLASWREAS

[2] = target: T1, myeloperoxidase; assay: MPO Peroxidation Assay (Amplex Red Assay); type: biochemical; conditions: potency range class, read-out: Amplex Red Assay IC50 value

Row | IC50 [1] [nM] | IC50 [2] [nM] | SMILES
1 | 101 to 999 | 101 to 999 | Nc1cc(C(CCN[C@@H]2CCc3cc(F)ccc32)c2ccccc2)c2nn[nH]c2n1 (stereo partly drawn) [Example 61, 7-(3-{[(1R)-5-fluoro-2,3-dihydro-1H-inden-1-yl]amino}-1-phenylpropyl)-3H-[1,2,3]triazolo[4,5-b]pyridin-5-amine]
2 | 101 to 999 | 101 to 999 | Nc1cc(C(CCNCc2ccnc(C(F)(F)F)c2)c2ccccc2)c2nn[nH]c2n1 (stereo not shown) [Example 62, 7-[1-phenyl-3-({[2-(trifluoromethyl)pyridin-4-yl]methyl}amino)propyl]-3H-[1,2,3]triazolo[4,5-b]pyridin-5-amine]
3 | 1 to 100 | 101 to 999 | Nc1cc(C(CCNCc2ccccc2Cc2ccccc2)c2ccccc2)c2nn[nH]c2n1 (stereo not shown) [Example 63, 7-(3-{[(2-benzylphenyl)methyl]amino}-1-phenylpropyl)-3H-[1,2,3]triazolo[4,5-b]pyridin-5-amine]
4 | 101 to 999 | 101 to 999 | Nc1cc(C(CCN[C@@H]2CCc3c(Cl)cccc32)c2ccccc2)c2nn[nH]c2n1 (stereo partly drawn) [Example 65, 7-(3-{[(1R)-4-chloro-2,3-dihydro-1H-inden-1-yl]amino}-1-phenylpropyl)-3H-[1,2,3]triazolo[4,5-b]pyridin-5-amine]
5 | 101 to 999 | 101 to 999 | NC(=O)c1cccc(CNCCC(c2ccccc2)c2cc(N)nc3[nH]nnc23)c1 (stereo not shown) [Example 70, 3-{[(3-{5-amino-3H-[1,2,3]triazolo[4,5-b]pyridin-7-yl}-3-phenylpropyl)amino]methyl}hbenzamide]
6 | 101 to 999 | 101 to 999 | CN(C)C(=O)c1cccc(CNCCC(c2ccccc2)c2cc(N)nc3[nH]nnc23)c1 (stereo not shown) [Example 72, 3-{[(3-{5-amino-3H-[1,2,3]triazolo[4,5-b]pyridin-7-yl}-3-phenylpropyl)amino]methyl}-N,N-dimethylbenzamide]
7 | 1 to 100 | 1000 to 10000 | Nc1cc(C(CCN[C@H]2CCc3c(Cl)cccc32)c2ccccc2)c2nn[nH]c2n1 (stereo partly drawn) [Example 73, 7-(3-{[(1S)-4-chloro-2,3-dihydro-1H-inden-1-yl]amino}-1-phenylpropyl)-3H-[1,2,3]triazolo [4,5-b]pyridin-5-amine]
8 | 1 to 100 | 101 to 999 | Nc1cc(C(CCNCc2ccccc2Oc2ccccc2)c2ccccc2)c2nn[nH]c2n1 (stereo not shown) [Example 74, 7-(3-{[(2-phenoxyphenyl)methyl]amino}-1-phenylpropyl)-3H-[1,2,3]triazolo[4,5-b]pyridin-5-amine]
9 | 1 to 100 | 101 to 999 | Nc1cc(C(CCN[C@H]2C[C@@H](c3ccccc3)C2)c2ccccc2)c2nn[nH]c2n1 (stereo partly shown) [Example 76, 7-(1-phenyl-3-{[(1s,3s)-3-phenylcyclobutyl]amino}propyl)-3H-[1,2,3]triazolo[4,5-b]pyridin-5-amine]
10 | 1 to 100 | 101 to 999 | Nc1cc(C(CCNCc2ccccc2Cc2ccc3c(c2)CCCC3)c2ccccc2)c2nn[nH]c2n1 (stereo not shown) [Example 78, 7-{1-phenyl-3-[({2-[(5,6,7,8-tetrahydronaphthalen-2-yl)methyl]phenyl}methyl)amino]propyl}-3H-[1,2,3] triazolo[4,5-b] pyridin-5-amine]
11 | 1 to 100 | 1000 to 10000 | Nc1cc(C(CCN[C@H]2C[C@H](c3ccccc3)Cc3ccccc32)c2ccccc2)c2nn[nH]c2n1 (stereo partly drawn) [Example 82, 7-(1-phenyl-3-{[(1S,3R)-3-phenyl-1,2,3,4-tetrahydronaphthalen-1-yl]amino}propyl)-3H-[1,2,3]triazolo [4,5-b]pyridin-5-amine]
12 | 1 to 100 | 1000 to 10000 | Nc1cc(C(CCN[C@@H]2C[C@H](c3ccccc3)Cc3ccccc32)c2ccccc2)c2nn[nH]c2n1 (stereo partly drawn) [Example 83, 7-(1-phenyl-3-{[(1R,3R)-3-phenyl-1,2,3,4-tetrahydronaphthalen-1-yl]amino}propyl)-3H-[1,2,3]triazolo [4,5-b]pyridin-5-amine]
13 | 101 to 999 | 1000 to 10000 | Nc1cc(C(CCN[C@@H]2C[C@@H](c3ccccc3)Cc3ccccc32)c2ccccc2)c2nn[nH]c2n1 (stereo partly drawn) [Example 84, 7-(1-phenyl-3-{[(1R,3S)-3-phenyl-1,2,3,4-tetrahydronaphthalen-1-yl]amino}propyl)-3H-[1,2,3]triazolo [4,5-b]pyridin-5-amine]
14 | 1 to 100 | 101 to 999 | CC1(C)C[C@@H](NCCC(c2ccccc2)c2cc(N)nc3[nH]nnc23)c2ccccc21 (stereo partly drawn) [Example 85, 7-(3-{[(1R)-3,3-dimethyl-2,3-dihydro-1H-inden-1-yl]amino}-1-phenylpropyl)-3H-[1,2,3]triazolo [4,5-b]pyridin-5-amine]
15 | 1 to 100 | 101 to 999 | CC1(C)C[C@H](NCCC(c2ccccc2)c2cc(N)nc3[nH]nnc23)c2ccccc21 (stereo partly drawn) [Example 87, 7-(3-{[(1S)-3,3-dimethyl-2,3-dihydro-1H-inden-1-yl]amino}-1-phenylpropyl)-3H-[1,2,3]triazolo [4,5-b]pyridin-5-amine]
16 | 101 to 999 | 101 to 999 | CC1C[C@@H](NCCC(c2ccccc2)c2cc(N)nc3[nH]nnc23)c2ccccc21 (stereo partly drawn) [Example 88, 7-(3-{[(1R)-3-methyl-2,3-dihydro-1H-inden-1-yl]amino}-1-phenylpropyl)-3H-[1,2,3]triazolo[4,5-b]pyridin-5-amine]
17 | 101 to 999 | 1000 to 10000 | Nc1cc(C(CCNCc2ccccc2OC(F)(F)F)c2ccccc2)c2nn[nH]c2n1 (stereo not shown) [Example 89, 7-[1-phenyl-3-({[2-(trifluoromethoxy)phenyl]methyl}amino)propyl]-3H-[1,2,3] triazolo[4,5-b] pyridin-5-amine]
18 | 1 to 100 | 1000 to 10000 | Nc1cc(C(CCNC2CCN(c3ccccc3)CC2)c2ccccc2)c2nn[nH]c2n1 (stereo not shown) [Example 92, N-(3-{5-amino-3H-[1,2,3]triazolo [4,5-b]pyridin-7-yl}-3-phenylpropyl)-1-phenylpiperidin-4-amine]
19 | 1 to 100 | 101 to 999 | CC1C[C@H](NCCC(c2ccccc2)c2cc(N)nc3[nH]nnc23)c2ccccc21 (stereo partly drawn) [Example 95, 7-(3-{[(1S)-3-methyl-2,3-dihydro-1H-inden-1-yl]amino}-1-phenylpropyl)-3H-[1,2,3]triazolo[4,5-b]pyridin-5-amine]
20 | 101 to 999 | 1000 to 10000 | CC(C)(C)C1CCC(NCCC(c2ccccc2)c2cc(N)nc3[nH]nnc23)CC1 (stereo not shown) [Example 96, 7-{3-[(4-tert-butylcyclohexyl)amino]-1-phenylpropyl}-3H-[1,2,3]triazolo[4,5-b] pyridin-5-amine]
21 | 1 to 100 | 101 to 999 | CC1C[C@@H](NCCC(c2ccccc2)c2cc(N)nc3[nH]nnc23)c2ccccc21 (stereo partly drawn) [Example 98, 7-(3-{[(1R)-3-methyl-2,3-dihydro-1H-inden-1-yl]amino}-1-phenylpropyl)-3H-[1,2,3]triazolo [4,5-b] pyridin-5-amine]
22 | 1 to 100 | 101 to 999 | CC1C[C@H](NCCC(c2ccccc2)c2cc(N)nc3[nH]nnc23)c2ccccc21 (stereo partly drawn) [Example 99, 7-(3-{[(1S)-3-methyl-2,3-dihydro-1H-inden-1-yl]amino}-1-phenylpropyl)-3H-[1,2,3]triazolo[4,5-b] pyridin-5-amine]
23 | 101 to 999 | 101 to 999 | CC(C)(CNCCC(c1ccccc1)c1cc(N)nc2[nH]nnc12)c1ccccc1 (stereo not shown) [Example 104, 7-{3-[(2-methyl-2-phenylpropyl)amino]-1-phenylpropyl}-3H-[1,2,3]triazolo[4,5-b] pyridin-5-amine]
24 | 1 to 100 | 1000 to 10000 | Nc1cc(C(CCNC2CCC(c3cccc(Cl)c3)CC2)c2ccccc2)c2nn[nH]c2n1 (stereo not shown) [Example 105, 7-(3-{[4-(3-chlorophenyl)cyclohexyl]amino}-1-phenylpropyl)-3H-[1,2,3]triazolo[4,5-b]pyridin-5-amine]
25 | 101 to 999 | 101 to 999 | Nc1cc(C(CCNCCCc2ccccc2)c2ccccc2)c2nn[nH]c2n1 (stereo not shown) [Example 106, 7-{1-phenyl-3-[(3-phenylpropyl)amino]propyl}-3H-[1,2,3] triazolo[4,5-b] pyridin-5-amine]
26 | 1 to 100 | 101 to 999 | Nc1cc(C(CCN[C@H]2CC[C@@H](c3ccc(Cl)cc3)CC2)c2ccccc2)c2nn[nH]c2n1 (stereo partly shown) [Example 107, 7-(1-phenyl-3-{[(1s,4s)-4-(4-chlorophenyl)cyclohexyl]amino}propyl)-3H-[1,2,3] triazolo[4,5-b] pyridin-5-amine]
27 | 1 to 100 | 101 to 999 | Nc1cc(C(CCN[C@H]2CC[C@H](c3ccc(Cl)cc3)CC2)c2ccccc2)c2nn[nH]c2n1 (stereo partly drawn) [Example 108, 7-(1-phenyl-3-{[(trans)-4-(4-chlorophenyl)cyclohexyl]amino}propyl)-3H-[1,2,3] triazolo[4,5-b] pyridin-5-amine]
28 | 101 to 999 | 101 to 999 | Nc1cc(C(CCNCCc2ccccc2)c2ccccc2)c2nn[nH]c2n1 (stereo not shown) [Example 109, 7-{1-phenyl-3-[(2-phenylethyl)amino]propyl}-3H-[1,2,3] triazolo[4,5-b] pyridin-5-amine]
29 | 101 to 999 | 101 to 999 | CC1(NCCC(c2ccccc2)c2cc(N)nc3[nH]nnc23)CCc2ccccc21 (stereo not shown) [Example 110, 7-{3-[(1-methyl-2,3-dihydro-1H-inden-1-yl)amino]-1-phenylpropyl}-3H-[1,2,3]triazolo[4,5-b]pyridin-5-amine]
